Reference: patent US20260137697A1, “THIAZOLO[5,4-D]PYRIMIDINE COMPOUNDS, COMPOSITIONS COMPRISING THEM AND USES THEREOF” (University de Montreal, priority 2022, published 2026)

Tests used:
pERK, HCT116 cells = assay: Phospho-ERK inhibition, AlphaLISA p-ERK 1/2, HCT-116; type: cell-based, human; conditions: for IC50: HCT116 cells (KRAS G13D), 1 h treatment; for HCT116 pERK (Ymin %): lowest % inhibition value of the pERK IC50 curve, above −20% = no paradoxical induction
Summary of the method: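 Cells in RPMI-1640 with 5% FBS plated overnight, then treated 1 h with ten-point dilutions (10 μM to 0.33 nM, 0.5% DMSO). Lysate p-ERK1/2 (Thr202/Tyr204) read by AlphaLISA SureFire Ultra; % inhibition normalised to DMSO and 1 μM trametinib background, IC50 by four-parameter fit.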

BRAF = molecular target: T1, BRAF (Homo sapiens, UniProt P15056); assay: BRAF kinase activity assay (ADP-Glo); type: biochemical; conditions: 10 μM ATP, kinase-dead MEK1 substrate
T1 construct: GST; purchased Millipore Sigma B4062-10UG
T1 sequence (P15056 whole entry): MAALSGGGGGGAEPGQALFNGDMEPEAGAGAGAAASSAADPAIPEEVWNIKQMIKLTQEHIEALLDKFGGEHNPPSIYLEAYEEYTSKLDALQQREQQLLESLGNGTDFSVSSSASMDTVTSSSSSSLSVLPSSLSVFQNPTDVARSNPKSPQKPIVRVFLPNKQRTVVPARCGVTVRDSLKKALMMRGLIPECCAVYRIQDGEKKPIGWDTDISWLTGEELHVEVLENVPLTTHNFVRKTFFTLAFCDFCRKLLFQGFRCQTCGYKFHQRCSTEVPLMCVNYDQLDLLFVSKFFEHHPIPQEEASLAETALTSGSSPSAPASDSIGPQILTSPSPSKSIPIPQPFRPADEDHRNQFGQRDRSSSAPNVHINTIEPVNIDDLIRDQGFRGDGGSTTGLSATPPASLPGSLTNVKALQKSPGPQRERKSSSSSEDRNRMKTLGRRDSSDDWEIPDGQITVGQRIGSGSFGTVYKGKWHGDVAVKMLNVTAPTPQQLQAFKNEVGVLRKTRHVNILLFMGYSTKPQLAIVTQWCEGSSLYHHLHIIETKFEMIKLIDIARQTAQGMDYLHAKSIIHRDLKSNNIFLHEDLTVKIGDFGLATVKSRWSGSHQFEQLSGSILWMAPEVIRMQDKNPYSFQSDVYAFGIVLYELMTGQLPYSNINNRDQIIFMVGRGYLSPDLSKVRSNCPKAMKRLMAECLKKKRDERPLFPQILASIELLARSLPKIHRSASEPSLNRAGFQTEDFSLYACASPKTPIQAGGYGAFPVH
Summary of the method: (§1)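 ADP-Glo luminescence read after 2 h reactions at 30° C containing 0.375 nM GST-kinase, kinase-dead MEK1 (75 nM), ATP at 10 μM, pH 7.5 HEPES/MgCl2/DTT, 0.05% DMSO. Compounds dosed from 100 to 0.01 nM (nine points); IC50 from variable-slope fit of % inhibition.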

CRAF = molecular target: T2, CRAF (Homo sapiens, UniProt P04049); assay: CRAF kinase activity assay (ADP-Glo); type: biochemical; conditions: 10 μM ATP, kinase-dead MEK1 substrate
T2 construct: fused on or other part: GST tag (N-terminal according to the vendor's product)
T2 sequence (P04049 whole entry Y340E/Y341E, form open, the tested form may be a part): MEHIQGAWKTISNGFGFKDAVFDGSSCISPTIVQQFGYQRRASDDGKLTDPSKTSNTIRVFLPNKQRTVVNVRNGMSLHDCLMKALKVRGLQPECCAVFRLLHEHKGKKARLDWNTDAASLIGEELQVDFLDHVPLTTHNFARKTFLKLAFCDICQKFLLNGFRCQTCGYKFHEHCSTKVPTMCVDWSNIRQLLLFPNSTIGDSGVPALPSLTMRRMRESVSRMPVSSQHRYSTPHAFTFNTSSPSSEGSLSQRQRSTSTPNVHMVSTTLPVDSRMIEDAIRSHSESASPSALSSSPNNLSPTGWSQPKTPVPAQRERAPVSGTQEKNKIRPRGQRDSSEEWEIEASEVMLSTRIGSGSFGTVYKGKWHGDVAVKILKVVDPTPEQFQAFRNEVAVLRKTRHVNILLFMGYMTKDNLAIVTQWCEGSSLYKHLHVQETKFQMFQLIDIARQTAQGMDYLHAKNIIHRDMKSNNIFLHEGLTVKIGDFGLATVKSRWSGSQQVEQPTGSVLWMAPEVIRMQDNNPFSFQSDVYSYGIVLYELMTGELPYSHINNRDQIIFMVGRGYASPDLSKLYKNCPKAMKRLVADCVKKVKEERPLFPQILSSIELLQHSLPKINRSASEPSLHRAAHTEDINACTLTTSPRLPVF
Summary of the method: as §1

IC50 (pERK, HCT116 cells; Table 3) | IC50 (BRAF; Table 3) | IC50 (CRAF; Table 3) | IC50 (pERK, HCT116 cells; Homo sapiens, HCT-116, Table 3) | IC50 (pERK, HCT116 cells; Homo sapiens, HCT-116, Table 4) | IC50 (BRAF; Table 4) | IC50 (CRAF; Table 4) | Structure (SMILES) | HCT116 pERK (Ymin %) (pERK, HCT116 cells; Table 3)
< 500 nM | > 10 nM | 10 to 50 nM |  |  |  |  | O=S(=O)(Nc1ccc(F)c(Nc2ncnc3sc(-n4cnc5c(N6CCC7(CCCO7)CC6)cccc54)nc23)c1F)c1cccc(Cl)c1Cl [Example 136] | −17%
< 500 nM | 1 to 10 nM | 10 to 50 nM |  |  |  |  | COC1CCN(c2cccc3c2ncn3-c2nc3c(Nc4c(F)ccc(NS(=O)(=O)c5cccc(Cl)c5Cl)c4F)ncnc3s2)CC1 [Example 139] | −13%
< 500 nM | < 1 nM | < 10 nM |  |  |  |  | O=S(=O)(Nc1ccc(F)c(Nc2ncnc3sc(-n4cnc5c(N6CCOC(CO)C6)cccc54)nc23)c1F)c1cccc(Cl)c1Cl (stereo not drawn) [Example 141] | 2%
< 500 nM | 1 to 10 nM | 10 to 50 nM |  |  |  |  | O=S(=O)(Nc1ccc(F)c(Nc2ncnc3sc(-n4cnc5c(N6CCC(F)(CO)CC6)cccc54)nc23)c1F)c1cccc(Cl)c1Cl [Example 142] | 0%
< 500 nM | 1 to 10 nM | < 10 nM |  |  |  |  | O=S(=O)(Nc1ccc(F)c(Nc2ncnc3sc(-n4cnc5c(N6CCC(O)CC6)cccc54)nc23)c1F)c1cccc(Cl)c1Cl [Example 144] | −4%
< 500 nM | < 1 nM | 10 to 50 nM |  |  |  |  | O=S(=O)(Nc1ccc(F)c(Nc2ncnc3sc(-n4cnc5c(N6CCC[C@H](O)C6)cccc54)nc23)c1F)c1cccc(Cl)c1Cl [Example 147] | −4%
< 500 nM | 1 to 10 nM | 10 to 50 nM |  |  |  |  | O=S(=O)(Nc1ccc(F)c(Nc2ncnc3sc(-n4cnc5c(N6CCC[C@@H](O)C6)cccc54)nc23)c1F)c1cccc(Cl)c1Cl [Example 148] | −2%
< 500 nM | 1 to 10 nM | 10 to 50 nM |  |  |  |  | O=C1CCCC12CCN(c1cccc3c1ncn3-c1nc3c(Nc4c(F)ccc(NS(=O)(=O)c5cccc(Cl)c5Cl)c4F)ncnc3s1)CC2 [Example 151] | −2%
< 500 nM | < 1 nM | < 10 nM |  |  |  |  | O=S(=O)(Nc1ccc(F)c(Nc2ncnc3sc(-n4cnc5c(N6CCN(CCO)CC6)cccc54)nc23)c1F)c1cccc(Cl)c1Cl [Example 152] | 0%
< 500 nM | 1 to 10 nM | < 10 nM |  |  |  |  | CS(=O)(=O)C1CCN(c2cccc3c2ncn3-c2nc3c(Nc4c(F)ccc(NS(=O)(=O)c5cccc(Cl)c5Cl)c4F)ncnc3s2)CC1 [Example 153] | −5%
 | > 10 nM | > 50 nM | 1000 to 10000 nM |  |  |  | Cc1c(F)cccc1S(=O)(=O)Nc1ccc(F)c(Nc2ncnc3sc(-c4cncs4)nc23)c1F [Example 154, N-[2,4-difluoro-3-[(2-thiazol-5-ylthiazolo[5,4-d]pyrimidin-7-yl)amino]phenyl]-3-fluoro-2-methyl-benzenesulfonamide] | 
< 500 nM | 1 to 10 nM | 10 to 50 nM |  |  |  |  | CS(=O)(=O)N1CCN(c2cccc3c2ncn3-c2nc3c(Nc4c(F)ccc(NS(=O)(=O)c5cccc(Cl)c5Cl)c4F)ncnc3s2)CC1 [Example 155] | −12%
 | < 1 nM | < 10 nM | < 500 nM |  |  |  | O=S(=O)(Nc1ccc(F)c(Nc2ncnc3sc(-n4cnc5c(N6CCNCC6)cccc54)nc23)c1F)c1cccc(Cl)c1Cl [Example 156, 2,3-dichloro-N-[2,4-difluoro-3-[[2-(4-piperazin-1-ylbenzimidazol-1-yl)thiazolo[5,4-d]pyrimidin-7-yl]amino]phenyl]benzenesulfonamide] | 

Second part, the molecule before the results:

Structure (SMILES) | IC50 (pERK, HCT116 cells; Table 3) | IC50 (BRAF; Table 3) | IC50 (CRAF; Table 3) | IC50 (pERK, HCT116 cells; Homo sapiens, HCT-116, Table 3) | IC50 (pERK, HCT116 cells; Homo sapiens, HCT-116, Table 4) | IC50 (BRAF; Table 4) | IC50 (CRAF; Table 4) | HCT116 pERK (Ymin %) (pERK, HCT116 cells; Table 3)
O=S(=O)(Nc1ccc(F)c(Nc2ncnc3sc(-n4cnc5c(N6CCC(O)(C(F)(F)F)CC6)cccc54)nc23)c1F)c1cccc(Cl)c1Cl [Example 137] | < 500 nM | > 10 nM | > 50 nM |  |  |  |  | −14%
CC1(CO)CCN(c2cccc3c2ncn3-c2nc3c(Nc4c(F)ccc(NS(=O)(=O)c5cccc(Cl)c5Cl)c4F)ncnc3s2)CC1 [Example 138] | < 500 nM | > 10 nM | > 50 nM |  |  |  |  | −14%
N#CC1CCN(c2cccc3c2ncn3-c2nc3c(Nc4c(F)ccc(NS(=O)(=O)c5cccc(Cl)c5Cl)c4F)ncnc3s2)CC1 [Example 140] | < 500 nM | 1 to 10 nM | 10 to 50 nM |  |  |  |  | −10%
O=S(=O)(Nc1ccc(F)c(Nc2ncnc3sc(-n4cnc5c(C6(CO)CC6)cccc54)nc23)c1F)c1cccc(Cl)c1Cl [Example 143] | < 500 nM | 1 to 10 nM | < 10 nM |  |  |  |  | −8%
CC1(C#N)CCN(c2cccc3c2ncn3-c2nc3c(Nc4c(F)ccc(NS(=O)(=O)c5cccc(Cl)c5Cl)c4F)ncnc3s2)CC1 [Example 145] | < 500 nM | 1 to 10 nM | > 50 nM |  |  |  |  | −13%
O=S(=O)(Nc1ccc(F)c(Nc2ncnc3sc(-n4cnc5c(N6CCC7(CCOC7)CC6)cccc54)nc23)c1F)c1cccc(Cl)c1Cl [Example 146] | < 500 nM | > 10 nM | > 50 nM |  |  |  |  | −12%
CCC1(O)CCN(c2cccc3c2ncn3-c2nc3c(Nc4c(F)ccc(NS(=O)(=O)c5cccc(Cl)c5Cl)c4F)ncnc3s2)CC1 [Example 149] | < 500 nM | 1 to 10 nM | 10 to 50 nM |  |  |  |  | 16%
CC1(O)CCCN(c2cccc3c2ncn3-c2nc3c(Nc4c(F)ccc(NS(=O)(=O)c5cccc(Cl)c5Cl)c4F)ncnc3s2)CC1 (stereo not drawn) [Example 150] | 1000 to 10000 nM | > 10 nM | 10 to 50 nM |  |  |  |  | −5%
CC1(N)CCN(c2cccc3c2ncn3-c2nc3c(Nc4c(F)ccc(NS(=O)(=O)c5cccc(Cl)c5Cl)c4F)ncnc3s2)CC1 [Example 157] | < 500 nM | < 1 nM | < 10 nM |  |  |  |  | −14%
O=S1(=O)CCN(c2cccc3c2ncn3-c2nc3c(Nc4c(F)ccc(NS(=O)(=O)c5cccc(Cl)c5Cl)c4F)ncnc3s2)CC1 [Example 158] | < 500 nM | < 1 nM | < 10 nM |  |  |  |  | 4%
O=S(=O)(Nc1cc(F)c(F)c(Nc2ncnc3sc(-n4cnc5ccccc54)nc23)c1F)c1cccc(Cl)c1Cl [Example 159, N-[3-[[2-(benzimidazol-1-yl)thiazolo[5,4-d]pyrimidin-7-yl]amino]-2,4,5-trifluoro-phenyl]-2,3-dichloro-benzenesulfonamide] |  |  |  |  | < 500 nM | 1 to 10 nM | < 10 nM | 
